Active and inactive are the calls of the source. The rule behind the calls is not given here.
What was measured:
[1] = compound enhancement of TRAIL-induced cell killing – NB7 cells plus caspase-8, luminescence, panel, dose response (AID 652002); settings: NB7 neuroblastoma +caspase-8, no TRAIL, compound-alone cytotoxicity counter-screen, luminescence viability, NB7+Caspase-8
[2] = target: NB7+Caspase-8; test: as above; settings: NB7 neuroblastoma +caspase-8, TRAIL sensitization, luminescence viability, with TRAIL
[3] = target: Tumor necrosis factor receptor superfamily member 10B (Homo sapiens) (UniProt O14763); test: as above; settings: NB7 neuroblastoma +caspase-8, TRAIL sensitization, luminescence viability; NB7+Caspase-8; with TRAIL, mean of runs
[4] = run 1, single replicate panel EC50
[5] = run 2, single replicate panel EC50

Tumor necrosis factor receptor superfamily member 10B (Homo sapiens), sequence (O14763 whole entry, looked up): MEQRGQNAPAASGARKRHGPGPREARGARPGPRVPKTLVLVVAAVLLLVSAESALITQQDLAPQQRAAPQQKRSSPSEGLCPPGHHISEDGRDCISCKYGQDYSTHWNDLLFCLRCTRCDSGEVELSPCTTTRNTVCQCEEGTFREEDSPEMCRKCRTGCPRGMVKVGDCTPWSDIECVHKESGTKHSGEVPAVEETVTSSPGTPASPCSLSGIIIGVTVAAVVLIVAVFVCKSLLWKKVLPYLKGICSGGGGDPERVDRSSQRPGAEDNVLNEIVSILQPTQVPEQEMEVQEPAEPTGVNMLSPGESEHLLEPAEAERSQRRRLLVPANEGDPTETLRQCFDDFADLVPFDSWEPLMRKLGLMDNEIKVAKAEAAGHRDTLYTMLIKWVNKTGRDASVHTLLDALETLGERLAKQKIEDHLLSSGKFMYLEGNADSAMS

C#Cc1ccc(NC(=O)C2(C)CCN2C(=O)Cc2ccc(C(C)C)cc2)cc1 (stereo not given)
EC50 ([1]; mean of runs): inactive | EC50 [1, 4]: > 12.5 µM | EC50 [1, 5]: 8.26 µM | EC50 [2, 4]: > 12.5 µM | EC50 [2, 5]: > 12.5 µM | EC50 [3]: > 12.5 µM (inactive)

O=C(NCC1CCCO1)c1ccc2c3n(nc2c1)-c1ccccc1CO3 (stereo not given)
EC50 ([1]; mean of runs): > 12.5 µM (inactive) | EC50 [1, 4]: > 12.5 µM | EC50 [1, 5]: > 12.5 µM | EC50 [2, 4]: > 12.5 µM | EC50 [2, 5]: 8.3 µM | EC50 [3]: inactive

O=C(N/N=C/c1ccc2cccnc2c1)c1ccco1
EC50 ([1]; mean of runs): inactive | EC50 [1, 4]: 11.4 µM | EC50 [1, 5]: 12.1 µM | EC50 [2, 4]: > 12.5 µM | EC50 [2, 5]: 6.53 µM | EC50 [3]: inactive

O=C(Oc1c(CN2CCOCC2)cc(Cl)c2cccnc12)c1cccs1
EC50 ([1]; mean of runs): > 12.5 µM (inactive) | EC50 [1, 4]: > 12.5 µM | EC50 [1, 5]: > 12.5 µM | EC50 [2, 4]: > 12.5 µM | EC50 [2, 5]: 6.75 µM | EC50 [3]: inactive

Cn1nnc(NC(=O)c2ccc(C(C)(C)C)cc2)n1
EC50 ([1]; mean of runs): inactive | EC50 [1, 4]: > 12.5 µM | EC50 [1, 5]: 5.83 µM | EC50 [2, 4]: > 12.5 µM | EC50 [2, 5]: 5.01 µM | EC50 [3]: inactive

Cc1nc2cc(NC(=O)c3ccco3)ccc2n1C
EC50 ([1]; mean of runs): inactive | EC50 [1, 4]: > 12.5 µM | EC50 [1, 5]: 11.5 µM | EC50 [2, 4]: > 12.5 µM | EC50 [2, 5]: > 12.5 µM | EC50 [3]: > 12.5 µM (inactive)

COCCNC(=O)c1cc(-c2ccc(-c3ccccc3)cc2)nc2ccccc12
EC50 ([1]; mean of runs): inactive | EC50 [1, 4]: > 12.5 µM | EC50 [1, 5]: 2.09 µM | EC50 [2, 4]: > 12.5 µM | EC50 [2, 5]: 6.28 µM | EC50 [3]: inactive

CCSc1ccc(-c2ccc(C)cc2)nn1
EC50 ([1]; mean of runs): inactive | EC50 [1, 4]: > 12.5 µM | EC50 [1, 5]: 8.12 µM | EC50 [2, 4]: > 12.5 µM | EC50 [2, 5]: 7.07 µM | EC50 [3]: inactive

COc1ccc(-c2cc(C(=O)OCC(=O)Nc3ccc4c(c3)OCO4)c3ccccc3n2)cc1
EC50 ([1]; mean of runs): inactive | EC50 [1, 4]: 6.39 µM | EC50 [1, 5]: 6.23 µM | EC50 [2, 4]: > 12.5 µM | EC50 [2, 5]: 7.82 µM | EC50 [3]: inactive

CC1(C)N=C(N)N=C(N)N1c1ccc(Oc2ccc(Cl)cc2)c(Cl)c1
EC50 ([1]; mean of runs): inactive | EC50 [1, 4]: 1.64 µM | EC50 [1, 5]: 0.423 µM | EC50 [2, 4]: 1.33 µM | EC50 [2, 5]: 0.948 µM | EC50 [3]: inactive

COc1cccc(C(=O)Nc2ccc(C3CC3(Cl)Cl)cc2)c1 (stereo not given)
EC50 ([1]; mean of runs): > 12.5 µM (inactive) | EC50 [1, 4]: > 12.5 µM | EC50 [1, 5]: > 12.5 µM | EC50 [2, 4]: > 12.5 µM | EC50 [2, 5]: > 12.5 µM | EC50 [3]: > 12.5 µM (inactive)

CC(C)C[C@H](NC(=O)c1nc[nH]c1C(=O)N[C@@H](CC(C)C)C(=O)OCc1ccccc1)C(=O)OCc1ccccc1
EC50 ([1]; mean of runs): > 12.5 µM (inactive) | EC50 [1, 4]: > 12.5 µM | EC50 [1, 5]: > 12.5 µM | EC50 [2, 4]: > 12.5 µM | EC50 [2, 5]: > 12.5 µM | EC50 [3]: > 12.5 µM (inactive)

Cc1cc2nc3ccc(N(C)C)cc3nc2cc1N
EC50 ([1]; mean of runs): > 12.5 µM (inactive) | EC50 [1, 4]: > 12.5 µM | EC50 [1, 5]: > 12.5 µM | EC50 [2, 4]: > 12.5 µM | EC50 [2, 5]: 10.9 µM | EC50 [3]: inactive

CSc1nc(N)n2nc(-c3ccc(Cl)cc3)cc2n1
EC50 ([1]; mean of runs): > 12.5 µM (inactive) | EC50 [1, 4]: > 12.5 µM | EC50 [1, 5]: > 12.5 µM | EC50 [2, 4]: > 12.5 µM | EC50 [2, 5]: > 12.5 µM | EC50 [3]: > 12.5 µM (inactive)

O=C1c2ccc(Cl)cc2S(=O)(=O)c2cccc(C(=O)N3CCC(Cc4ccccc4)CC3)c21
EC50 ([1]; mean of runs): > 12.5 µM (inactive) | EC50 [1, 4]: > 12.5 µM | EC50 [1, 5]: > 12.5 µM | EC50 [2, 4]: > 12.5 µM | EC50 [2, 5]: > 12.5 µM | EC50 [3]: > 12.5 µM (inactive)

O=C(Nc1ccc(C(=O)O)cc1)/C(=C\C=C\c1ccccc1)NC(=O)c1ccccc1Cl
EC50 ([1]; mean of runs): inactive | EC50 [1, 4]: 7.94 µM | EC50 [1, 5]: > 12.5 µM | EC50 [2, 4]: > 12.5 µM | EC50 [2, 5]: 3.5 µM | EC50 [3]: inactive

O=C(Nc1ccc(Br)cc1F)c1ccc2c(c1)OCCO2
EC50 ([1]; mean of runs): inactive | EC50 [1, 4]: > 12.5 µM | EC50 [1, 5]: 11.2 µM | EC50 [2, 4]: > 12.5 µM | EC50 [2, 5]: 12.5 µM | EC50 [3]: inactive

Cc1cc(-c2ccccc2)nc(Nc2nc3c(C)cccc3c(=O)[nH]2)n1
EC50 ([1]; mean of runs): > 12.5 µM (inactive) | EC50 [1, 4]: > 12.5 µM | EC50 [1, 5]: > 12.5 µM | EC50 [2, 4]: > 12.5 µM | EC50 [2, 5]: > 12.5 µM | EC50 [3]: > 12.5 µM (inactive)

O=C(NC(=O)c1ccccc1)Nc1ccccc1
EC50 ([1]; mean of runs): > 12.5 µM (inactive) | EC50 [1, 4]: > 12.5 µM | EC50 [1, 5]: > 12.5 µM | EC50 [2, 4]: > 12.5 µM | EC50 [2, 5]: > 12.5 µM | EC50 [3]: > 12.5 µM (inactive)

CCCCc1nc(NCCN)c(C#N)c2c1CSC(C)(C)C2
EC50 ([1]; mean of runs): > 12.5 µM (inactive) | EC50 [1, 4]: > 12.5 µM | EC50 [1, 5]: > 12.5 µM | EC50 [2, 4]: > 12.5 µM | EC50 [2, 5]: > 12.5 µM | EC50 [3]: > 12.5 µM (inactive)

Reference: PubChem BioAssay AID652002 (Sanford-Burnham Center for Chemical Genomics, 2013)
